Where “and” joins values, the source holds several entries; their conditions need not be identical. Equal values may be shown once. Toxic doses and inconclusive results are not listed.

This assay deals with L1210 leukemia ip in BDF1 mice, survival T/C. The experiment in a line: NCI In Vivo Anticancer Drug Screen. Data for tumor model L1210 Leukemia (intraperitoneal) in B6D2F1 (BDF1) mice. Particulars: endpoint: mean survival time, higher = longer survival. The method in brief:
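Transplantable tumor model; survival measured in treated vs vehicle control mice. Value = treated/control.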

The mark [1] stands for this setting: dose: 50.0 mg/kg/injection, schedule: Q01DX009 (ip), vehicle: Klucel (hydroxypropylcellulose) (HPC).
The mark [2] stands for this setting: dose: 100.0 mg/kg/injection, schedule: Q01DX009 (ip), vehicle: Klucel (hydroxypropylcellulose) (HPC).
Setting [3] is: dose: 200.0 mg/kg/injection, schedule: Q01DX009 (ip), vehicle: Klucel (hydroxypropylcellulose) (HPC).
Setting [4] is: dose: 400.0 mg/kg/injection, schedule: Q01DX009 (ip), vehicle: Klucel (hydroxypropylcellulose) (HPC).
The mark [5] stands for this setting: dose: 100.0 mg/kg/injection, schedule: Q01DX001 (ip), vehicle: saline.
Where [6] appears, read: dose: 200.0 mg/kg/injection, schedule: Q01DX001 (ip), vehicle: saline.
The mark [7] stands for this setting: dose: 100.0 mg/kg/injection, schedule: Q04DX003 (ip), vehicle: Klucel (hydroxypropylcellulose) (HPC).
Where [8] appears, read: dose: 200.0 mg/kg/injection, schedule: Q04DX003 (ip), vehicle: Klucel (hydroxypropylcellulose) (HPC).
Where [9] appears, read: dose: 400.0 mg/kg/injection, schedule: Q04DX003 (ip), vehicle: Klucel (hydroxypropylcellulose) (HPC).
Where [10] appears, read: dose: 100.0 mg/kg/injection, schedule: Q04DX002 (ip), vehicle: saline with Tween-80.
The mark [11] stands for this setting: dose: 200.0 mg/kg/injection, schedule: Q04DX002 (ip), vehicle: saline with Tween-80.
The mark [12] stands for this setting: dose: 400.0 mg/kg/injection, schedule: Q04DX002 (ip), vehicle: saline with Tween-80.
[13] abbreviates: dose: 100.0 mg/kg/injection, schedule: Q01DX001 (ip), vehicle: other.
[14] abbreviates: dose: 200.0 mg/kg/injection, schedule: Q01DX001 (ip), vehicle: other.
Setting [15] is: dose: 400.0 mg/kg/injection, schedule: Q01DX001 (ip), vehicle: other.

Regarding `N#CCCP(CCC#N)CCCCCCP(CCC#N)CCC#N`, the T/C (dose: 25.0 mg/kg/injection, schedule: Q04DX003 (ip), vehicle: saline with Tween-80) is 97 % of control; the T/C (dose: 50.0 mg/kg/injection, schedule: Q04DX003 (ip), vehicle: saline with Tween-80) was 90 % of control; the T/C (dose: 100.0 mg/kg/injection, schedule: Q04DX003 (ip), vehicle: saline with Tween-80) was 96 % of control and 90 % of control.
`CCCCCCCCCCCC(=O)Nc1cc(C)ccc1N=Nc1ccc(C)cc1`: the T/C by setting is: under setting [1], 86 % of control; under setting [2], 95 % of control; under setting [3], 88 % of control; under setting [4], 90 % of control.
Take `O=C(Nc1nn[nH]n1)C(F)(F)F`: the T/C under setting [5] is 108 % of control; the T/C under setting [6] is 103 % of control; the T/C (dose: 400.0 mg/kg/injection, schedule: Q01DX001 (ip), vehicle: saline) was 105 % of control.
For the compound `CC1(CCC(=O)/C=C/c2ccccc2)CCC/C(=C/c2ccccc2)C1=O` (stereo unspecified), the T/C is 97 % of control (dose: 12.5 mg/kg/injection, schedule: Q01DX009 (ip), vehicle: Klucel (hydroxypropylcellulose) (HPC)); 101 % of control (dose: 25.0 mg/kg/injection, schedule: Q01DX009 (ip), vehicle: Klucel (hydroxypropylcellulose) (HPC)); 103 % of control under setting [1]; 91 % of control under setting [7]; 91 % of control under setting [8]; 91 % of control under setting [9].
For `O=C1OC(c2ccco2)=N/C1=C\c1ccc(Cl)c(Cl)c1`, the T/C was 108 % of control under setting [10], 105 % of control under setting [11] and 108 % of control under setting [12].
Regarding `CC1(C(=O)O)CCC(C(=O)O)C1(C)C` (stereo unspecified), the T/C under setting [10] was 105 % of control, the T/C under setting [11] is 100 % of control and the T/C under setting [12] is 93 % of control.
Regarding `C1=Nc2ccccc2/C1=C/c1ccc2c(c1)OCO2`, the T/C was 97 % of control and 102 % of control (dose: 100.0 mg/kg/injection, schedule: Q01DX009 (ip), vehicle: carboxymethylcellulose (CMC)); 93 % of control and 102 % of control (dose: 100.0 mg/kg/injection, schedule: Q04DX002 (ip), vehicle: carboxymethylcellulose (CMC)); 98 % of control (dose: 100.0 mg/kg/injection, schedule: Q04DX003 (ip), vehicle: carboxymethylcellulose (CMC)); 96 % of control and 87 % of control (dose: 200.0 mg/kg/injection, schedule: Q01DX009 (ip), vehicle: carboxymethylcellulose (CMC)); 93 % of control and 98 % of control (dose: 200.0 mg/kg/injection, schedule: Q04DX002 (ip), vehicle: carboxymethylcellulose (CMC)); 93 % of control (dose: 200.0 mg/kg/injection, schedule: Q04DX003 (ip), vehicle: carboxymethylcellulose (CMC)). The T/C is 93 % of control and 94 % of control (dose: 400.0 mg/kg/injection, schedule: Q01DX009 (ip), vehicle: carboxymethylcellulose (CMC)); 104 % of control and 107 % of control (dose: 400.0 mg/kg/injection, schedule: Q04DX002 (ip), vehicle: carboxymethylcellulose (CMC)); 96 % of control (dose: 400.0 mg/kg/injection, schedule: Q04DX003 (ip), vehicle: carboxymethylcellulose (CMC)).
For `COC1CCCC[CH]1[Hg][Br]` (stereo unspecified), the T/C was 90 % of control (dose: 0.78 mg/kg/injection, schedule: Q01DX009 (ip), vehicle: saline with Tween-80); 96 % of control (dose: 1.56 mg/kg/injection, schedule: Q01DX009 (ip), vehicle: saline with Tween-80); 96 % of control (dose: 3.13 mg/kg/injection, schedule: Q01DX009 (ip), vehicle: saline with Tween-80); 93 % of control (dose: 12.5 mg/kg/injection, schedule: Q01DX009 (ip), vehicle: saline with Tween-80).
For the compound `CC(C)COC(=O)c1cccc2c1-c1ccccc1C2=O`, the T/C under setting [13] is 96 % of control, the T/C under setting [14] was 87 % of control and the T/C under setting [15] was 98 % of control.
With `CC1COCC(C)N1CC(=O)NCCCN1CCN(CCCNC(=O)CN2C(C)COCC2C)CC1` (stereo unspecified), the T/C by setting is: (dose: 44.0 mg/kg/injection, schedule: Q01DX001 (ip), vehicle: saline) 98 % of control and 103 % of control; (dose: 66.0 mg/kg/injection, schedule: Q01DX001 (ip), vehicle: saline) 104 % of control and 108 % of control; under setting [5], 104 % of control and 105 % of control; (dose: 150.0 mg/kg/injection, schedule: Q01DX001 (ip), vehicle: saline) 110 % of control and 116 % of control; under setting [6], 113 % of control.
As to `Nc1cc2ccccc2cn1`, the T/C is 112 % of control under setting [7], 102 % of control under setting [8] and 107 % of control under setting [9].
For the compound `CCCCCCCCCCCCCCCCCC1=NCCN1CCN`, the T/C is 111 % of control (dose: 25.0 mg/kg/injection, schedule: Q01DX009 (ip), vehicle: saline); 97 % of control (dose: 25.0 mg/kg/injection, schedule: Q04DX003 (ip), vehicle: saline); 97 % of control (dose: 50.0 mg/kg/injection, schedule: Q01DX009 (ip), vehicle: saline); 92 % of control (dose: 50.0 mg/kg/injection, schedule: Q04DX003 (ip), vehicle: saline); 100 % of control (dose: 100.0 mg/kg/injection, schedule: Q01DX001 (ip), vehicle: acetone); 101 % of control (dose: 100.0 mg/kg/injection, schedule: Q04DX003 (ip), vehicle: saline).
Take `NS(=O)(=O)c1ccc(NC(=O)Nc2ccccc2Cl)cc1`: the T/C is, setting by setting: (dose: 100.0 mg/kg/injection, schedule: Q01DX001 (ip), vehicle: Klucel (hydroxypropylcellulose) (HPC)) 90 % of control; under setting [2], 100 % of control and 90 % of control; (dose: 100.0 mg/kg/injection, schedule: Q04DX002 (ip), vehicle: Klucel (hydroxypropylcellulose) (HPC)) 97 % of control and 108 % of control; under setting [7], 106 % of control; (dose: 200.0 mg/kg/injection, schedule: Q01DX001 (ip), vehicle: Klucel (hydroxypropylcellulose) (HPC)) 88 % of control; under setting [3], 94 % of control and 103 % of control. Moreover, the T/C reads like this: (dose: 200.0 mg/kg/injection, schedule: Q04DX002 (ip), vehicle: Klucel (hydroxypropylcellulose) (HPC)) 93 % of control and 108 % of control; under setting [8], 106 % of control; (dose: 400.0 mg/kg/injection, schedule: Q01DX001 (ip), vehicle: Klucel (hydroxypropylcellulose) (HPC)) 92 % of control; under setting [4], 98 % of control and 90 % of control; (dose: 400.0 mg/kg/injection, schedule: Q04DX002 (ip), vehicle: Klucel (hydroxypropylcellulose) (HPC)) 108 % of control and 92 % of control; under setting [9], 105 % of control.
Take `NNC(=O)C1CC2C=CC1C2` (stereo unspecified): the T/C by setting is: (dose: 100.0 mg/kg/injection, schedule: Q01DX009 (ip), vehicle: saline) 100 % of control; (dose: 200.0 mg/kg/injection, schedule: Q01DX009 (ip), vehicle: saline) 103 % of control.
`CCOP(=S)(N1CC1(C)C)N1CC1(C)C` (stereo unspecified): the T/C by setting is: (dose: 12.5 mg/kg/injection, schedule: Q01DX015 (ip), vehicle: carboxymethylcellulose (CMC)) 105 % of control; (dose: 25.0 mg/kg/injection, schedule: Q01DX015 (ip), vehicle: carboxymethylcellulose (CMC)) 105 % of control; (dose: 50.0 mg/kg/injection, schedule: Q01DX015 (ip), vehicle: carboxymethylcellulose (CMC)) 111 % of control; (dose: 100.0 mg/kg/injection, schedule: Q01DX015 (ip), vehicle: carboxymethylcellulose (CMC)) 152 % of control; (dose: 200.0 mg/kg/injection, schedule: Q01DX015 (ip), vehicle: carboxymethylcellulose (CMC)) 164 % of control.
Regarding `O=C(O)/C(S)=C/c1ccc2c(c1)OCO2`, the T/C is 100 % of control (dose: 100.0 mg/kg/injection, schedule: Q01DX001 (ip), vehicle: carboxymethylcellulose (CMC)); 102 % of control (dose: 200.0 mg/kg/injection, schedule: Q01DX001 (ip), vehicle: carboxymethylcellulose (CMC)); 102 % of control (dose: 400.0 mg/kg/injection, schedule: Q01DX001 (ip), vehicle: carboxymethylcellulose (CMC)).
For the compound `CCC(=O)/C=C/c1ccccc1OC`, the T/C under setting [10] was 97 % of control, the T/C under setting [11] is 105 % of control and the T/C under setting [12] was 105 % of control.
As to `Cn1c(=O)c2[nH]c(CS(=O)(=O)Cc3nc4c([nH]3)c(=O)n(C)c(=O)n4C)nc2n(C)c1=O`, the T/C was 90 % of control (dose: 50.0 mg/kg/injection, schedule: Q01DX001 (ip), vehicle: other); 101 % of control under setting [13]; 95 % of control under setting [14]; 92 % of control under setting [15].
